This note sets out measurements from ChEMBL document CHEMBL2169870, “A novel aminopeptidase N inhibitor developed by virtual screening approach” (Bioorg Med Chem Lett, 2012).

pIC50: −log10 of the molar value. Activity calls are given as the source filed them. The rule behind the calls is not given here.

Data set [1] has as its target T1, Aminopeptidase N (Sus scrofa, UniProt P15145).
T1 sequence (P15145 whole entry): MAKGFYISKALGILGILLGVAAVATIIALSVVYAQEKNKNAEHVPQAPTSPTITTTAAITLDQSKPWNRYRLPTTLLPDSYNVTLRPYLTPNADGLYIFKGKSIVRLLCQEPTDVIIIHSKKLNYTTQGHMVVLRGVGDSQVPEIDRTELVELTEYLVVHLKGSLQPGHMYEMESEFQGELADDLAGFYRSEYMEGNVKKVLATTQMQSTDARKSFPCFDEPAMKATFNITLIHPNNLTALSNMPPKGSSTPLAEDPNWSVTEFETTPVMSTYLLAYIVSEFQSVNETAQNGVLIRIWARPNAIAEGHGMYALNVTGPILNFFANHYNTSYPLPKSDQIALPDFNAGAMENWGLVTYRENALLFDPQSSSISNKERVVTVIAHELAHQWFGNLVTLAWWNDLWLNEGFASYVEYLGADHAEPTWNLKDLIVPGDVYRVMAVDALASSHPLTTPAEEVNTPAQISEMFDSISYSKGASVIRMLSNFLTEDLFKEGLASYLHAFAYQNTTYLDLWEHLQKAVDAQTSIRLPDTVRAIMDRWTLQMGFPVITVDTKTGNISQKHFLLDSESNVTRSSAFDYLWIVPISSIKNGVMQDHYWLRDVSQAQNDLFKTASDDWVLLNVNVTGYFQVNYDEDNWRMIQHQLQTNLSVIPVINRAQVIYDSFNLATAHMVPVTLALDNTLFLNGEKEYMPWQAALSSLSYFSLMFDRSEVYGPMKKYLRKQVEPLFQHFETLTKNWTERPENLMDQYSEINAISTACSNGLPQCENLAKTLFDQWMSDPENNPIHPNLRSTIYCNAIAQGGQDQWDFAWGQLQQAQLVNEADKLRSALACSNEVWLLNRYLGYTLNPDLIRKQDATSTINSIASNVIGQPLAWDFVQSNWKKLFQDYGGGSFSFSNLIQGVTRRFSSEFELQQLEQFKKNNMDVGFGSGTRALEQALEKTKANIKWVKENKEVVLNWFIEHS
Put plainly: Inhibition of porcine kidney microsome aminopeptidase using L-Leu-p-nitroanilide as substrate after 30 mins.

In data set [2] the test system is MDA-MB-231. Briefly: Induction of apoptosis in human MDA-MB-231 cells assessed as early apoptotic cells at 20 uM after 24 hrs using annexin-V-FITC staining by flow cytometry (reference value: 1.69%). Type of data set: functional. In general terms: Flow cytometry measures light scatter and fluorescence of single cells or particles in a stream.
Data set [3] has as its system SK-OV-3. Briefly: Cytotoxicity against human SKOV3 cells after 48 hrs by MTT assay. (In general: Tetrazolium dyes change colour on reduction, which living cells bring about.)
Data set [4] concerns ES2. Put plainly: Cytotoxicity against human ES2 cells after 48 hrs by MTT assay.
Data set [5] relates to HL-60. Put plainly: Cytotoxicity against human HL60 cells after 48 hrs by MTT assay.
For data set [6], the system named is NB-4. Briefly: Cytotoxicity against human NB4 cells after 48 hrs by MTT assay.
The test system of data set [7] is MDA-MB-231. Briefly: Antimetastatic activity in human MDA-MB-231 cells assessed as inhibition of cell invasion at 20 uM after 20 hrs by matrigel assay. In kind it is functional, cell-based.
Data set [8] relates to MDA-MB-231. Briefly: Cell cycle arrest in human MDA-MB-231 cells assessed as accumulation at G1 phase at 20 uM after 48 hrs using propidium iodide staining by flow cytometry (reference value: 48.40%). Type of data set: functional.
The test system of data set [9] is MDA-MB-231. Briefly: Induction of apoptosis in human MDA-MB-231 cells assessed as late apoptotic cells at 20 uM after 24 hrs using annexin-V-FITC staining by flow cytometry (reference value: 1.69%). Type of data set: functional.
Data set [10] concerns MDA-MB-231. Briefly: Cell cycle arrest in human MDA-MB-231 cells assessed as accumulation at S phase at 20 uM after 48 hrs using propidium iodide staining by flow cytometry (reference value: 33.25%). Type of data set: functional.
Data set [11] concerns HeLa. Put plainly: Cytotoxicity against human HeLa cells after 48 hrs by MTT assay.
Data set [12] has as its system MCF7. Put plainly: Cytotoxicity against human MCF7 cells after 48 hrs by MTT assay.
Data set [13] has as its system NIH3T3. Briefly: Cytotoxicity against mouse NIH/3T3 cells after 48 hrs by MTT assay. In kind it is cell-based.
Data set [14] deals with MDA-MB-231. Briefly: Cell cycle arrest in human MDA-MB-231 cells assessed as accumulation at G2 phase at 20 uM after 48 hrs using propidium iodide staining by flow cytometry (reference value: 18.35%). In kind it is functional.
Data set [15] relates to MDA-MB-231. Briefly: Induction of apoptosis in human MDA-MB-231 cells assessed as late apoptotic cells at 300 uM after 24 hrs using annexin-V-FITC staining by flow cytometry (reference value: 1.69%). Type of data set: functional.
The test system of data set [16] is HeLa. Put plainly: Cytotoxicity against human HeLa cells after 48 hrs by MTT assay.
For data set [17], the system named is A549. Briefly: Cytotoxicity against human A549 cells after 48 hrs by MTT assay. The following applies: A549, 48 h.
Data set [18] concerns MCF7. Put plainly: Cytotoxicity against human MCF7 cells after 48 hrs by MTT assay. The following applies: MCF7, 48 h.
In data set [19] the test system is HCT-116. Put plainly: Cytotoxicity against human HCT116 cells after 48 hrs by MTT assay. The following applies: HCT-116, 48 h.
Data set [20] in a line: Cytotoxicity against human ES2 cells after 48 hrs by MTT assay. The following applies: ES-2, 48 h.
In data set [21] the test system is MDA-MB-231. Put plainly: Cell cycle arrest in human MDA-MB-231 cells assessed as accumulation at G1 phase at 300 uM after 48 hrs using propidium iodide staining by flow cytometry (reference value: 48.40%). Type of data set: functional.
For data set [22], the system named is SK-OV-3. Briefly: Cytotoxicity against human SKOV3 cells after 48 hrs by MTT assay. The following applies: SK-OV-3, 48 h.
Data set [23] has as its system MDA-MB-231. Briefly: Antimetastatic activity in human MDA-MB-231 cells assessed as inhibition of cell invasion at 300 uM after 20 hrs by matrigel assay. Type of data set: functional, cell-based.
The test system of data set [24] is HL-60. Briefly: Cytotoxicity against human HL60 cells after 48 hrs by MTT assay. The following applies: HL-60, 48 h.
Data set [25] concerns MDA-MB-231. Put plainly: Cytotoxicity against human MDA-MB-231 cells after 48 hrs by MTT assay. The following applies: MDA-MB-231, 48 h.
Data set [26] concerns MDA-MB-231. Put plainly: Induction of apoptosis in human MDA-MB-231 cells assessed as early apoptotic cells at 300 uM after 24 hrs using annexin-V-FITC staining by flow cytometry (reference value: 1.69%). In kind it is functional.
Data set [27] concerns NB-4. Put plainly: Cytotoxicity against human NB4 cells after 48 hrs by MTT assay. The following applies: NB-4, 48 h.
Data set [28] relates to K562. Briefly: Cytotoxicity against human K562 cells after 48 hrs by MTT assay. The following applies: K562, 48 h.
Data set [29] relates to MDA-MB-231. Briefly: Cell cycle arrest in human MDA-MB-231 cells assessed as accumulation at S phase at 300 uM after 48 hrs using propidium iodide staining by flow cytometry (reference value: 33.25%). Type of data set: functional.
The test system of data set [30] is MDA-MB-231. Briefly: Cell cycle arrest in human MDA-MB-231 cells assessed as accumulation at G2 phase at 300 uM after 48 hrs using propidium iodide staining by flow cytometry (reference value: 18.35%). Type of data set: functional.
For data set [31], the system named is PC-3. Put plainly: Cytotoxicity against human PC3 cells after 48 hrs by MTT assay. The following applies: PC-3, 48 h.

As a reminder, the pIC50 is the negative decadic logarithm of the IC50, by convention in mol/L. Read a high pIC50 as a low IC50. In [1], `CCOC(=O)/C(N)=N/NS(=O)(=O)c1ccc(C)cc1` gave a pIC50 of 3.49.
In [1], `Nc1nc2c(ncn2S(=O)(=O)c2cccc(C(=O)O)c2)c(=O)[nH]1` had a pIC50 of 3.69.
The same measure, in the same setting: next, `O=C1NC(=O)C(=NNc2cc([N+](=O)[O-])ccc2O)C(=O)N1`: under 3.00; `CC[C@H](N)[C@H](O)c1ccc(OC)cc1`: under 3.00.
In the case of `COc1cc(/C=C2/C(=O)NC(=O)N(Cc3ccc(F)cc3)C2=O)cc(OC)c1O`, the negative logarithm of the IC50 (pIC50) in [1] is 4.10.
In the case of `C=CCN/C(S)=N/C=C1C(=O)NC(=O)NC1=O`, the pIC50 in [1] is 4.18.
In turn, `NNC(=O)/C(=C/c1ccc([N+](=O)[O-])cc1)NC(=O)c1ccc(Br)cc1` had a pIC50 in data set [1] of 3.36.
`NC(=S)NNC(=O)c1ccccc1C(=O)O` had a pIC50 in data set [1] of under 3.00.
The same measure, in the same setting: next, `Cc1cc(/C=N/Nc2ccc([N+](=O)[O-])cc2[N+](=O)[O-])c(C)n1-c1ccc(S(N)(=O)=O)cc1`: under 3.00.
`O=C(CN1C(=O)C2(OCCO2)c2cc(Br)ccc21)NO`: the Activity is 4.99% in [2]; “Dose-dependent effect” in [3]; “Dose-dependent effect” in [4]; “Dose-dependent effect” in data set [5]; “Dose-dependent effect” in [6]; 93.27% in data set [8]. Besides, the Activity is 5.35% in [9]; 2.9% in [10]; “Dose-dependent effect” in [11]; “Dose-dependent effect” in [12]; “Dose-dependent effect” in [13] (mouse, nih3t3, 48 h); 3.83% in [14]. The result in data set [7] was Active.
In turn, `O=C1Nc2ccccc2/C1=C1/SC(=S)N(NC(=O)c2cccc(O)c2)C1=O` had a pIC50 in [1] of 3.77.
Same read-out and setting: in the case of `O=C(O)COc1ccc(/C=N/n2c(COc3ccccc3)nc3ccccc3c2=O)cc1` it was 3.73; in that of `NC(=O)c1ccccc1NC(=O)c1ccccc1C(=O)O`, 4.18.
Still for that read-out and setting: in the case of `NS(=O)(=O)c1ccc(-n2cccc2/C=C2/C(=O)NN(c3ccc(Cl)cc3)C2=O)cc1` it was under 3.00; in that of `O=C1NC(=O)C(=NNc2cccc(C(=O)O)c2)C(=O)N1`, under 3.00.
Same read-out and setting: next, `CC(=O)NC(=S)NNC(=O)COc1ccc(Br)cc1`: 3.64; `Cc1[nH]cnc1/C=N/NC(N)=S`: under 3.00.
Take `Nn1c(COc2ccccc2)n[nH]c1=S`: the negative-log IC50 (pIC50) in data set [1] was 3.37.
In the case of `CC(C)C[C@H](NC(=O)[C@@H](O)[C@H](N)Cc1ccccc1)C(=O)O` [UBENIMEX], the Activity in data set [15] is on record as 2.14%; in data set [21], 77.91%; in data set [26], 8.54%; in [29], 15.06%; in [30], 7.03%. Besides, the negative logarithm of the IC50 (pIC50) is 3.81 in [16]; 3.29 in data set [17]; under 3.00 in [18]; under 3.00 in data set [19]; 4.13 in data set [20]; under 3.00 in [22]. For the same compound, the pIC50 was 4.06 in data set [24]; 4.30 in data set [25]; 3.66 in [27]; 3.87 in data set [28]; 3.40 in [31]; under 3.00 in data set [13] (Mus musculus, NIH3T3, 48 h). For the same compound, the result in data set [23] was Active.
